Results: US20250195521A1 (Revolution Medicines, Inc., priority 2020, published 2025)
pEC50, pIC50: −log10 of the molar value. Where two headings read alike, the source gives them in different places.

Assays:
KRAS WT = KRAS WT (Homo sapiens (Human), UniProt P01116+P62937); experiment: Ras-Raf disruption/FRET/MOA assay, KRAS WT; format: biochemical; settings: read-out: KRAS WT FRET IC50
Description: (§1) Disruption of B-Raf Ras-Binding Domain (BRAF^RBD) Interaction with K-Ras by Compounds of the Invention (Also Called a FRET Assay or an MOA Assay)
(§2) Note—The following protocol describes a procedure for monitoring disruption of K-Ras G12C (GMP-PNP) binding to BRAF^RBD by a compound of the invention. This protocol may also be executed substituting other Ras proteins or nucleotides, such as K-Ras G12D and K-Ras G13D.
(§3) The purpose of this biochemical assay was to measure the ability of test compounds to facilitate ternary complex formation between a nucleotide-loaded K-Ras isoform and Cyclophilin A; the resulting ternary complex disrupts binding to a BRAF^RBD construct, inhibiting K-Ras signaling through a RAF effector. Data is reported as IC50 values.
(§4) In assay buffer containing 25 mM HEPES pH 7.3, 0.002% Tween20, 0.1% BSA, 100 mM NaCl and 5 mM MgCl2, tagless Cyclophilin A, His6-K-Ras-GMPPNP, and GST-BRAF^RBD were combined in a 384-well assay plate at final concentrations of 25 μM, 12.5 nM, and 50 nM, respectively. Compound was present in plate wells as a 10-point 3-fold dilution series starting at a final concentration of 30 μM. After incubation at 25° C. for 3 hours, a mixture of anti-His Eu—W1024 and anti-GST allophycocyanin was then added to assay sample wells at final concentrations of 10 nM and 50 nM, respectively, and the reaction incubated for an additional 1.5 hours. […] Compounds that facilitate disruption of a K-Ras: RAF complex were identified as those eliciting a decrease in the TR-FRET ratio relative to DMSO control wells.

KRAS G13D = KRAS G13D (Homo sapiens (Human), UniProt P01116+P62937, G13D); experiment: Ras-Raf disruption/FRET/MOA assay, KRAS G13D; format: biochemical; settings: read-out: KRAS G13D FRET IC50
Description: as §1, §2, §3, §4

KRAS G12S = KRAS G12S (Homo sapiens (Human), UniProt P01116+P62937, G12S); experiment: Ras-Raf disruption/FRET/MOA assay, KRAS G12S; format: biochemical; settings: read-out: KRAS G12S FRET IC50
Description: as §1, §2, §3, §4

KRAS G13C = KRAS G13C (Homo sapiens (Human), UniProt P01116+P62937, G13C); experiment: Ras-Raf disruption/FRET/MOA assay, KRAS G13C; format: biochemical; settings: read-out: KRAS G13C FRET IC50
Description: as §1, §2, §3, §4

KRAS G12V = KRAS G12V (Homo sapiens (Human), UniProt P01116+P62937, G12V); experiment: Ras-Raf disruption/FRET/MOA assay, KRAS G12V; format: biochemical
Description: as §1, §2, §3, §4

KRAS G12D = KRAS G12D (Homo sapiens (Human), UniProt P01116+P62937, G12D); experiment: Ras-Raf disruption/FRET/MOA assay, KRAS G12D; format: biochemical; settings: read-out: KRAS G12D FRET IC50
Description: as §1, §2, §3, §4

KRAS G12C = KRAS G12C (Homo sapiens (Human), UniProt P01116+P62937, G12C); experiment: Ras-Raf disruption/FRET/MOA assay, KRAS G12C; format: biochemical; settings: read-out: KRAS G12C FRET data IC50
Description: as §1, §2, §3, §4

NRAS G12C = NRAS G12C (Homo sapiens (Human), UniProt P01111+P62937, G12C); experiment: Ras-Raf disruption/FRET/MOA assay, NRAS G12C; format: biochemical; settings: read-out: NRAS G12C FRET data IC50
Description: as §1, §2, §3, §4

AsPC-1 (K-Ras G12D) [1] = experiment: Potency assay: pERK; format: cell-based, human; settings: Homo sapiens, ASPC1, read-out: pERK EC50
How it was run: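 pERK decrease measured after 4 h compound treatment at 37 °C (10 three-fold dilutions, duplicate wells), by either fixed-cell In-Cell Western with DRAQ5 counterstain or AlphaLISA on lysates. Signal fitted against log concentration with a four-parameter model to give IC50.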

NCI-H358 (K-Ras G12C) = experiment: CellTiter-Glo cell viability assay, H358; format: cell-based, human; settings: Homo sapiens, NCI-H358, 120 h, read-out: H358 Cell Viability IC50, K-Ras G12C, 5-day treatment
Experimental: Note—The following protocol describes a procedure for monitoring cell viability of K-Ras mutant cancer cell lines in response to a compound of the invention. Other RAS isoforms may be employed, though the number of cells to be seeded will vary based on cell line used.
Test compounds (132.5 nL) were directly dispensed into the assay plates containing cells. […] On day 5, assay plates and their contents were equilibrated to room temperature for approximately 30 minutes. […] Luminescence was measured using the PerkinElmer Enspire. Data were normalized by the following: (Sample signal/Avg. DMSO)*100. The data were fit using a four-parameter logistic fit.

AsPC-1 (K-Ras G12D) [2] = experiment: CellTiter-Glo cell viability assay, AsPC-1; format: cell-based, human; settings: Homo sapiens, ASPC1, 120 h, read-out: AsPC-1 Cell Viability IC50
How it was run: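 Luminescent viability readout on day 5 after direct compound addition to plated cells; plates sat ~30 min at room temperature before reading. Values expressed as percent of mean DMSO signal, curves fit with a four-parameter logistic model.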

Chain of KRAS G12V (P01116 other isoform, or with tags, fused parts or gaps G12V): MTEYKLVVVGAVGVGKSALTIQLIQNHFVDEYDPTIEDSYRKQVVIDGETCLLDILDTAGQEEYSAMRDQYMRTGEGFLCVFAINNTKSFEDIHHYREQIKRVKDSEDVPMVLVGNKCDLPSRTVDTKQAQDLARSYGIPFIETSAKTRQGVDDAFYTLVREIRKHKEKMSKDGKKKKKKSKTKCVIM
Chain of KRAS G12V (P62937 whole entry): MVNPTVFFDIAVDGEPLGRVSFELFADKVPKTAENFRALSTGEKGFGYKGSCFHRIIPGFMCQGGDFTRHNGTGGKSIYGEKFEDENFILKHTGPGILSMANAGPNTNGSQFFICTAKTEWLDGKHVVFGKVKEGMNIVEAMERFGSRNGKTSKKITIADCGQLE
Chain of KRAS WT (P01116 other isoform, or with tags, fused parts or gaps): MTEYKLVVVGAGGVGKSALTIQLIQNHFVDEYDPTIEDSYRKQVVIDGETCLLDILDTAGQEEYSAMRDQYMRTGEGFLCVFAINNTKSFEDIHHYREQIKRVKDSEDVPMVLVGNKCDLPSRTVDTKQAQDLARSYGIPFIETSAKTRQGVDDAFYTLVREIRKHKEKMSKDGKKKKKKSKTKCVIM
Chain of KRAS WT (P62937 whole entry, the tested form may be a part): as the sequence (P62937 whole entry) above
Chain of KRAS G12S (P01116 other isoform, or with tags, fused parts or gaps G12S): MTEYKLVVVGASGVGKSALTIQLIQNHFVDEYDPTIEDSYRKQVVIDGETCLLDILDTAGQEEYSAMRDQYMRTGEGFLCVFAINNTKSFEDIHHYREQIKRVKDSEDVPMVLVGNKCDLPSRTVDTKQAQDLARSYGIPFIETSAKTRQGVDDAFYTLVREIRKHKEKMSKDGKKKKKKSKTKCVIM
Chain of KRAS G12S (P62937 whole entry): as the sequence (P62937 whole entry) above
Chain of KRAS G12D (P01116 other isoform, or with tags, fused parts or gaps G12D): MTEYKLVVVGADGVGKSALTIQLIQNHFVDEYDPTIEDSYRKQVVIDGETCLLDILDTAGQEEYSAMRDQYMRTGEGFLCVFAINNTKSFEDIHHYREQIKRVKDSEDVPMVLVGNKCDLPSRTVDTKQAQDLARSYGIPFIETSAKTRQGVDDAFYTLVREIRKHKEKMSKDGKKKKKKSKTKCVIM
Chain of KRAS G12D (P62937 whole entry): as the sequence (P62937 whole entry) above
Chain of KRAS G13C (P01116 other isoform, or with tags, fused parts or gaps G13C): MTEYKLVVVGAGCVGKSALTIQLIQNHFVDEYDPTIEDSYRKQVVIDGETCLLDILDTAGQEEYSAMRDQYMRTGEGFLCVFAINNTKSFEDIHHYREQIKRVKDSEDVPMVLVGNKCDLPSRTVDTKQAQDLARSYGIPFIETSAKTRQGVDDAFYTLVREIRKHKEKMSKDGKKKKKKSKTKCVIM
Chain of KRAS G13C (P62937 whole entry): as the sequence (P62937 whole entry) above
Chain of NRAS G12C (P01111 whole entry G12C): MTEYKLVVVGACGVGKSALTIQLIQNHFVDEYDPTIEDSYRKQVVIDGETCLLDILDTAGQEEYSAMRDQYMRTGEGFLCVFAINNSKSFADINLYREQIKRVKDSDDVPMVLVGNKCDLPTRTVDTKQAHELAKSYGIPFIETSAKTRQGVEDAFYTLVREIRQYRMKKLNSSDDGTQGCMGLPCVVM
Chain of NRAS G12C (P62937 whole entry): as the sequence (P62937 whole entry) above
Chain of KRAS G12C (P01116-2 other isoform, or with tags, fused parts or gaps G12C): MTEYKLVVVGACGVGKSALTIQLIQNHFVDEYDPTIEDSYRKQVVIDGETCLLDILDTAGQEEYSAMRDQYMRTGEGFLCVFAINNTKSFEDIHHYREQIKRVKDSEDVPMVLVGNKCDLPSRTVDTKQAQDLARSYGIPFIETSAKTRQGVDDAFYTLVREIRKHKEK
Chain of KRAS G12C (P62937 whole entry): as the sequence (P62937 whole entry) above
Chain of KRAS G13D (P01116 other isoform, or with tags, fused parts or gaps G13D): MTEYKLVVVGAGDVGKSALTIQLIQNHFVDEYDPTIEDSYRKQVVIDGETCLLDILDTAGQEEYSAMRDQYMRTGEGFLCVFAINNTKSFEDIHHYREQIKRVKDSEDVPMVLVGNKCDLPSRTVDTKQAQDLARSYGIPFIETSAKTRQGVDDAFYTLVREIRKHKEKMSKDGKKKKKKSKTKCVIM
Chain of KRAS G13D (P62937 whole entry): as the sequence (P62937 whole entry) above

| SMILES | pEC50 (AsPC-1 (K-Ras G12D) [1]) | pIC50 (NCI-H358 (K-Ras G12C)) | pIC50 (AsPC-1 (K-Ras G12D) [2]) | also measured |
| --- | --- | --- | --- | --- |
| CCn1c(-c2cccnc2[C@@H](C)OC)c2c3cc(ccc31)-c1cc(O)cc(c1)C[C@H](NC(=O)[C@H](C(C)C)N(C)C(=O)[C@H]1CCN(C(=O)[C@H]3CN3)C1)C(=O)N1CCC[C@H](N1)C(=O)OCC(C)(C)C2 (atropisomer, axis not shown) [Example 43B] |  |  |  | pIC50 (KRAS WT): 5.00 to 6.00 |
| CCn1c(-c2cnccc2COC)c2c3cc(ccc31)-c1cc(O)cc(c1)C[C@H](NC(=O)[C@H](C(C)C)N(C)C(=O)CCN(C)C(=O)[C@H]1CN1)C(=O)N1CCC[C@H](N1)C(=O)OCC(C)(C)C2 (single isomer, unassigned) [Example 41] |  |  |  | pIC50 (KRAS G13D): 6.00 to 7.00; pIC50 (KRAS G12S): 6.00 to 7.00; pIC50 (KRAS G13C): 7.00 to 8.00; pIC50 (KRAS G12V; read-out: KRAS G12V FRET IC50): 6.00 to 7.00; pIC50 (KRAS G12D): 6.00 to 7.00; pIC50 (KRAS WT): 6.00 to 7.00; pIC50 (KRAS G12C): > 8.00; pIC50 (NRAS G12C): > 8.00 |
| CCn1c(-c2cccnc2[C@H](C)OC)c2c3cc(ccc31)-c1cccc(c1)C[C@H](NC(=O)[C@H](C(C)C)N(C)C(=O)CCN=C=NCc1ccccc1OC)C(=O)N1CCC[C@H](N1)C(=O)OCC(C)(C)C2 [Example 73] |  |  |  | pIC50 (KRAS G12V; read-out: KRAS G12V FRET IC50): 5.00 to 6.00 |
| CCn1c(-c2cccnc2[C@H](C)OC)c2c3cc(ccc31)-c1cccc(c1)C[C@H](NC(=O)[C@H](C(C)C)N(C)C(=O)[C@H]1CC[C@H](N=C=NCc3ccccc3OC)C1)C(=O)N1CCC[C@H](N1)C(=O)OCC(C)(C)C2 [Example 76] |  |  |  | pIC50 (KRAS G12V; read-out: KRAS G12V FRET IC50): 5.00 to 6.00 |
| CCn1c(-c2cccnc2[C@H](C)OC)c2c3cc(ccc31)-c1cccc(c1)C[C@H](NC(=O)[C@H](C(C)C)N(C)C(=O)[C@H]1CC[C@H](N=C=NC(C)(C)C)C1)C(=O)N1CCC[C@H](N1)C(=O)OCC(C)(C)C2 [Example 125] |  |  |  | pIC50 (KRAS G12V; read-out: KRAS G12V FRET IC50): 5.00 to 6.00 |
| CC[C@H]1N[C@H]1C(=O)N(C)CC(=O)N(C)[C@H](C(=O)N[C@H]1Cc2cc(O)cc(c2)-c2ccc3c(c2)c(c(-c2cccnc2[C@H](C)OC)n3CC)CC(C)(C)COC(=O)[C@@H]2CCCN(N2)C1=O)C(C)C [Example 262] | > 5.30 | 7.00 to 8.00 | 6.00 to 7.00 |  |
| CC[C@@H]1N[C@@H]1C(=O)N(C)CC(=O)N(C)[C@H](C(=O)N[C@H]1Cc2cc(O)cc(c2)-c2ccc3c(c2)c(c(-c2cccnc2[C@H](C)OC)n3CC)CC(C)(C)COC(=O)[C@@H]2CCCN(N2)C1=O)C(C)C [Example 263] | > 5.30 | 7.00 to 8.00 | 6.00 to 7.00 |  |
| CCn1c(-c2cccnc2[C@H](C)OC)c2c3cc(ccc31)-c1cc(O)cc(c1)C[C@H](NC(=O)[C@H](C(C)C)N(C)C(=O)CN(C)C(=O)[C@@H]1N[C@@H]1C(C)C)C(=O)N1CCC[C@H](N1)C(=O)OCC(C)(C)C2 [Example 264] | > 5.30 | 7.00 to 8.00 | 6.00 to 7.00 |  |
| CCn1c(-c2cccnc2[C@H](C)OC)c2c3cc(ccc31)-c1cc(O)cc(c1)C[C@H](NC(=O)[C@H](C(C)C)N(C)C(=O)CN(C)C(=O)[C@H]1N[C@H]1C(C)C)C(=O)N1CCC[C@H](N1)C(=O)OCC(C)(C)C2 [Example 265] | > 5.30 | 7.00 to 8.00 | 6.00 to 7.00 |  |
| CCn1c(-c2cccnc2[C@H](C)OC)c2c3cc(ccc31)-c1cc(O)cc(c1)C[C@H](NC(=O)[C@H](C(C)C)N(C)C(=O)CN(C)C(=O)[C@H]1CN1CC(=O)N(C)C)C(=O)N1CCC[C@H](N1)C(=O)OCC(C)(C)C2 (stereo partly shown) [Example 270] | > 5.30 | 7.00 to 8.00 | 6.00 to 7.00 |  |
| CCn1c(-c2cccnc2[C@H](C)OC)c2c3cc(ccc31)-c1cc(O)cc(c1)C[C@H](NC(=O)[C@H](C(C)C)N(C)C(=O)CN(C)C(=O)[C@H]1CN1CCCC#N)C(=O)N1CCC[C@H](N1)C(=O)OCC(C)(C)C2 (stereo partly shown) [Example 273] | > 5.30 | > 8.00 | 6.00 to 7.00 |  |
| CCn1c(-c2cccnc2[C@H](C)OC)c2c3cc(ccc31)-c1cc(O)cc(c1)C[C@H](NC(=O)[C@H](C(C)C)N(C)C(=O)CN(C)C(=O)[C@@H]1CN1CCCC#N)C(=O)N1CCC[C@H](N1)C(=O)OCC(C)(C)C2 (stereo partly shown) [Example 274] | > 5.30 | > 8.00 | 6.00 to 7.00 |  |
| CCn1c(-c2cccnc2[C@H](C)OC)c2c3cc(ccc31)-c1cc(O)cc(c1)C[C@H](NC(=O)[C@H](C(C)C)N(C)C(=O)CN(C)C(=O)[C@@H]1CN1C1COC1)C(=O)N1CCC[C@H](N1)C(=O)OCC(C)(C)C2 (stereo partly shown) [Example 276] | > 5.30 | 7.00 to 8.00 | 5.00 to 6.00 |  |
| CCn1c(-c2cccnc2[C@H](C)OC)c2c3cc(ccc31)-c1cc(O)cc(c1)C[C@H](NC(=O)[C@H](C(C)C)N(C)C(=O)CN(C)C(=O)[C@H]1CN1CC1COC1)C(=O)N1CCC[C@H](N1)C(=O)OCC(C)(C)C2 (stereo partly shown) [Example 277] | > 5.30 | 7.00 to 8.00 | 6.00 to 7.00 |  |
| CCn1c(-c2cccnc2[C@H](C)OC)c2c3cc(ccc31)-c1cc(O)cc(c1)C[C@H](NC(=O)[C@H](C(C)C)N(C)C(=O)CN(C)C(=O)[C@H]1CN1CC1(C)COC1)C(=O)N1CCC[C@H](N1)C(=O)OCC(C)(C)C2 (stereo partly shown) [Example 279] | > 5.30 | > 8.00 | 6.00 to 7.00 |  |
| CCn1c(-c2cccnc2[C@H](C)OC)c2c3cc(ccc31)-c1cc(O)cc(c1)C[C@H](NC(=O)[C@H](C(C)C)N(C)C(=O)CN(C)C(=O)[C@@H]1CN1CC1(C)COC1)C(=O)N1CCC[C@H](N1)C(=O)OCC(C)(C)C2 (stereo partly shown) [Example 280] | > 5.30 | > 8.00 | 5.00 to 6.00 |  |
| CCn1c(-c2cccnc2[C@H](C)OC)c2c3cc(ccc31)-c1cc(O)cc(c1)C[C@H](NC(=O)[C@H](C(C)C)N(C)C(=O)CN(C)C(=O)[C@@H]1N[C@H]1C1COC1)C(=O)N1CCC[C@H](N1)C(=O)OCC(C)(C)C2 [Example 283] | > 5.30 | 7.00 to 8.00 | 6.00 to 7.00 |  |
| CCn1c(-c2cccnc2[C@H](C)OC)c2c3cc(ccc31)-c1cc(O)cc(c1)C[C@H](NC(=O)[C@H](C(C)C)N(C)C(=O)CN(C)C(=O)[C@@H]1N[C@@H]1C1CCC1)C(=O)N1CCC[C@H](N1)C(=O)OCC(C)(C)C2 [Example 287] | > 5.30 | 7.00 to 8.00 | 6.00 to 7.00 |  |
| CCn1c(-c2cccnc2[C@H](C)OC)c2c3cc(ccc31)-c1cc(O)cc(c1)C[C@H](NC(=O)[C@H](C(C)C)N(C)C(=O)CN(C)C(=O)[C@H]1N[C@H]1C1CCC1)C(=O)N1CCC[C@H](N1)C(=O)OCC(C)(C)C2 [Example 288] | > 5.30 | 7.00 to 8.00 | 6.00 to 7.00 |  |
| CCn1c(-c2cccnc2[C@H](C)OC)c2c3cc(ccc31)-c1cc(O)cc(c1)C[C@H](NC(=O)[C@H](C1CCCC1)N(C)C(=O)[C@@H](C)N(C)C(=O)[C@@H]1N[C@@H]1C1CC1)C(=O)N1CCC[C@H](N1)C(=O)OCC(C)(C)C2 [Example 327] |  |  |  | pIC50 (KRAS G12V): 5.00 to 6.00 |
